Experimental data from article PMC11065314, “Identification of compounds that cause axonal dieback without cytotoxicity in dorsal root ganglia explants and intervertebral disc cells with potential to treat pain via denervation” (PLOS ONE, 2024).
Values joined by “and” are separate entries in the source; they are usually repeats but may differ in a detail not shown here. Equal values may be shown once. Where a name gives a salt, the structure may show the parent alone.

Experiments:
[1] = tested on: adult rat DRG explants; type: cell-based
[2] = DRG cytotoxicity assessment using LDH assay; type: cell-based, rat; settings: female, rat, rat dorsal root ganglion (DRG) explants, female rat DRG explant, single well
Protocol: (§1) 500 nM Imy and 10 nM Vcr were excluded from female rat DRG experiments while 500 nM Vcr and 1 mM Pyr were excluded from male rat DRG experiments due to insufficient DRG replicates with axon outgrowth. DRG media was removed from wells and transferred into a 96-well plate for pre-treat LDH cytotoxicity assay (see Methods below). 300 μL of media treatment solutions or solvent control solutions were added to wells. DRGs were incubated with treatment solutions for three days, and brightfield images at 4X magnification were taken using BioTek Cytation1 Plate Imager (Agilent) before treatment (day -1) and on days 1, 2 and 3 after treatment. DRGs from adult male and female rats were tested to determine if sex can affect axonal dieback. In total, 12 to 15 DRG replicates per group by sex harvested from n = 3 male and n = 3 female rats were tested.
(§2) Lactate dehydrogenase (LDH) is a cytosolic enzyme present in all cells. Dissociated rat DRG neurons release LDH during tunicamycin-induced apoptosis. […] An ideal axonal dieback compound should cause axonal degeneration without neurotoxicity. was assessed on day 3 post-treat and normalized to pre-treat levels to account for variability in DRG size and growth and calculated as a percentage of cytotoxicity to lysed DRGs (positive control). 50 μL of pre-treatment and post-treatment media were aliquoted in duplicates into a 96-well plate. LDH activity in the media post-treat was assessed using the CyQUANT^TM LDH Cytotoxicity Assay Kit (Thermo Fisher Scientific, C20301) according to the manufacturer’s instructions. Briefly, 50 μL of Substrate Mix was added to each well and then incubated at room temperature for 30 minutes protected from light. 50 μL of Stop solution was added to each well and the absorbance at 490 nm and 680 nm was measured using a microplate reader (Agilent). LDH activity of each DRG was calculated as the difference between absorbance at 490 nm after subtracting the background absorbance at 680 nm. As a positive control, 13 female rat DRGs and 15 male rat DRGs were treated for three days with Lysis buffer solution, provided in the kit, diluted 1:5.45 in DRG media. The percentage of cytotoxicity was calculated following Eq 2. Pre-treat levels of LDH activity were subtracted from post-treat LDH activity in each DRG to remove baseline LDH activity then percentage of cytotoxicity compared to positive control lysed DRG LDH activity was calculated. Sex is a biological factor that can influence neurotoxicity. Thus, percentage of cytotoxicity of total 11 to 14 DRG replicates per group by sex from n = 3 male and n = 3 female rats were tested.
(§3) Cytotoxicity(%)=(PosttreatLDHactivity)−(PretreatLDHactivity)/(MaximumLDHactivityfromlysedDRGs)−(PretreatLDHactivity)×100% (2)

[3] = tested on: rat DRG explants; experiment: DRG cytotoxicity assessment using LDH assay; type: cell-based; settings: for Cytotoxicity (%): single well; for Overall cytotoxicity lower compared to lysed DRGs: all concentrations tested, day 3
Protocol: as §1, §2, §3

[4] = tested on: sciatic nerves; parameters: method as in PMID 3126271; settings: applied onto sciatic nerves; cited from earlier work
[5] = tested on: Human NP cells; experiment: NP cell metabolic activity (AlamarBlue reduction); type: cell-based;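 for AB reduction per cell (%): percent AlamarBlue reduction per manufacturer divided by estimated total cells per well from LIVE/DEAD counts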
Protocol: (§4) Nucleus pulposus (NP) cells are native matrix-producing cells at the core of intervertebral discs. To repurpose axonal dieback compounds to denervate aberrant nerve fibers in discs related to chronic LBP, the cytocompatibility of these compounds with NP cells must be evaluated. Human NP cells (Sciencell, 4800) from donor 1 (Lot #5954) and donor 2 (Lot# 21579) were cultured according to previously established protocol in our lab adapted from manufacturer’s instructions. Briefly, passage three cells from both donors were expanded in Poly-L-lysine (PLL) (Sciencell, 413) coated T75 flasks. Cells were then lifted and reseeded at 5,000 cells/cm^2 onto two PLL-coated 48-well plates (Greiner Bio-One, 677180) and allowed to attach overnight before treating with Pyr or Vcr. One plate was used for LIVE/DEAD staining and the other plate was used for AlamarBlue assay as described below. Complete NP cell media (Sciencell, 4801) containing basal media supplemented with 1% penicillin-streptomycin, 1% growth supplement and 2% FBS were used for maintaining cells in culture. To mimic the hypoxic disc environment, NP cells were cultured in a hypoxia chamber (Stem Cell Technologies, 27310) with 5% CO2, 3.5% O2, 91.5% N2 (Airgas) during the entire culture and treatment incubation period.
(§5) Pyr stock solution was diluted in complete NP media to achieve final concentrations of 500 μM, 1 mM and 2 mM Pyr. 16.9 μg/mL and 169 μg/mL Vcr stock solutions were prepared in 1X PBS then diluted in complete NP media to achieve final concentrations of 10, 25, 50, 100 nM and 200, 500 nM, respectively. Cells were incubated with 250 μL of final treatment solutions in duplicate wells per donor for three days. Cells in negative control group were incubated with 250 μL of complete NP media with 0.55% v/v 1X PBS as solvent control. On day 3 post-treatment, brightfield images at 4X magnification were taken using a BioTek Cytation1 Plate Imager (Agilent) to verify cell proliferation and observe cell morphology. Three experimental replicates were performed for each cell donor.
On day 3 of incubation with drugs, 25 μL (10% v/v of media volume) of AlamarBlue HS cell viability reagent (Thermo Fisher Scientific, A50100) were added into each well. Cells were incubated with the AlamarBlue reagent for 2 hours at 37°C under hypoxia then 60 μL aliquots of cell media were removed in duplicates into a 96-well plate. The absorbance at 570 and 600 nm were read using a microplate reader (Agilent) and calculations for AlamarBlue reduction were calculated according to the manufacturer’s protocol. To account for different cell confluency between donors and groups, AlamarBlue reduction was normalized to estimated total number of cells per well obtained from LIVE/DEAD staining. Cellular metabolic activity in treated groups was reported as a ratio of normalized AlamarBlue reduction to PBS control group.

[6] = Quantification of viable NP cells (LIVE/DEAD staining); type: cell-based, human; settings: both sexes, human; 500 μM, 1 mM and 2 mM, day 3 post-treatment, either donor; read-out: Percentage of viable cells
Protocol: as §4, §5
(§6) On day 3 of incubation with drug, media treatment solutions were removed from each well and cells were carefully rinsed with 200 μL of sterile 1X PBS to remove excess media. NP cells were stained with 150 μL of 2 μM Calcein AM and 6 μM EtHD-1 solution from LIVE/DEAD Viability/Cytotoxicity Kit (Thermo Fisher Scientific, L3224) for 30 minutes at room temperature protected from light. After staining, cells were gently rinsed with 200 μL sterile 1X PBS to remove excess staining solution. Excitation and emission wavelengths for live cell fluorescence is 495 and 515 nm and dead cell fluorescence is 495 and 635 nm. Using a BioTek Cytation1 Plate Imager (Agilent), GFP filter cube (Agilent, 1225101, ex: 451.5–486.5 nm, em: 505.5–544.5 nm) and RFP filter cubes (Agilent, 1225103, ex: 511-551nm, em: 573–613 nm), fluorescent images at 4X magnification of four regions per well were taken. Gen5 v3.11 software (Agilent) was used to count green (live) and orange (dead) cells in fluorescent images. Dead NP cell staining was verified and evident by positive EtHD-1 orange staining in kill control wells where cells were treated with 70% EtOH for 10 minutes (S4 Fig). Percentage of live cells were calculated by calculating the percentage of live cells over total cell counts as shown in Eq 3.
(§7) Cellviability(%)=Livecellcounts/Livecellcounts+Deadcellcounts×100% (3)

[7] = tested on: Human NP cells; experiment: as above; type: cell-based
Protocol: as §4, §5, §6, §7

[8] = parameters: method as in PMID 30888737; settings: intraarticular injection; cited from earlier work
[9] = tested on: dissociated neonatal DRG neurons; parameters: method as in PMID 7617165; settings: 30 μM, within 24 hours; cited from earlier work
[10] = 500 µM, donor 1, day 3, single wells (Exp, Rep)
[11] = 500 µM, donor 2, day 3, single wells (Exp, Rep)
[12] = 1 mM, donor 1, day 3, single wells (Exp, Rep)
[13] = 1 mM, donor 2, day 3, single wells (Exp, Rep)
[14] = 2 mM, donor 1, day 3, single wells (Exp, Rep)

C[C@H](CCC(=O)O)C[C@H](C)C[C@H](C)C(=O)/C=C(\O)[C@H](C)C[C@H](C)C/C=C/[C@@H](C)[C@@H](O)[C@@H](C)[C@@H](O)C[C@@H]1CC[C@@](C)([C@H]2CC[C@@](C)([C@@H](C)O)O2)O1 [Imy, Ionomycin]
Change in axon length ratio between timepoints [1]: no significant differences were observed between timepoints
Decrease in axon length [1]: 10%
Median axon length ratio (interquartile range) [1]: 0.977 (0.852–1.004) and 0.9 (0.75–0.985) and 0.982 (0.854–1.121)
cytotoxicity at 3 days, 0.77 µM ([2]; 0.77 µM): 8.76%
Cytotoxicity (%) ([3]; 0.77 µM, female rat DRG explant): 6.379% and 11.5202%
Overall cytotoxicity lower compared to lysed DRGs [3]: at least 88%
Fibers exhibiting large nerve lesions [4]: up to 95%

Cc1ncc(CO)c(CO)c1O [Pyr, Pyridoxine hydrochloride]
AlamarBlue reduction normalized to cell counts compared to PBS control ([5]; 500 μM, 1 mM and 2 mM, day 3): not significantly different between PBS control and all treated groups
AB reduction per cell (%) [5, 10]: 0.001757% and 0.001402% and 0.001221% and 0.001189% and 0.001666% and 0.001549%
AB reduction per cell (%) [5, 11]: 0.002098% and 0.001803% and 0.002358% and 0.001696% and 0.002473% and 0.003239%
AB reduction per cell (%) [5, 12]: 0.001279% and 0.001156% and 0.001657% and 0.001546%
AB reduction per cell (%) [5, 13]: 0.001937% and 0.002155% and 0.002387% and 0.003301%
AB reduction per cell (%) [5, 14]: 0.002206% and 0.002078% and 0.002787% and 0.003671% and 0.002259% and 0.001426%
AB reduction per cell (%) ([5]; 2 mM, donor 2, day 3, single wells (Exp, Rep)): 0.00138% and 0.001132% and 0.01401% and 0.003735% and 0.006792% and 0.003692%
Axonal dieback over time and against solvent control [1]: did not induce significant axonal dieback
Day on which Caps axon length ratio threshold (0.45) was met [1]: ≤ 2 days
Median axon length ratio (interquartile range) [1]: 0.607 (0.418–0.875) and 0.539 (0.317–0.676) and 0.451 (0.347–0.587)
cytotoxicity at 3 days, 500 µM ([2]; 500 µM): 5.33%
cytotoxicity at 3 days, 1 mM ([2]; 1 mM): 3.24%
Cytotoxicity (%) ([3]; 50 µM, female rat DRG explant): 1.523% and -1.428% and 2.095%
Cytotoxicity (%) ([3]; 500 µM, female rat DRG explant): 8.854% and 7.426%
Cytotoxicity (%) ([3]; 1 mM, female rat DRG explant): 4.951% and 3.523%
viability at 3 days [6]: > 89%
Percent live (%) [7, 10]: 99.8382% and 99.8845% and 99.1403% and 98.8605% and 99.9471% and 98.2749%
Percent live (%) [7, 11]: 97.5506% and 96.954% and 96.3405% and 99.1395% and 96.5794% and 98.8823%
Percent live (%) [7, 12]: 99.8893% and 99.7678% and 99.8269% and 99.7809%
Percent live (%) [7, 13]: 96.1436% and 95.9726% and 96.9575% and 96.5249%
Percent live (%) [7, 14]: 98.6699% and 99.5161% and 83.5317% and 86.125% and 97.6421% and 98.8217%

COc1cc(CNC(=O)CCCC/C=C/C(C)C)ccc1O [Caps, capsaicin]
Median axon length ratio (interquartile range) [1]: 0.657 (0.359–0.750) and 0.453 (0.270–0.624)
Percentage of cytotoxicity lower than in lysed DRGs ([3]; 3.79 mM, 3-day incubation): 90.2%
Cytotoxicity (%) ([3]; 3.79 mM, male rat DRG explant): 16.4427%
Overall cytotoxicity lower compared to lysed DRGs [3]: at least 88%
Duration of alleviation of knee pain [8]: about 18 weeks
Cell death [9]: induced significant cell death
